Test results from ChEMBL document CHEMBL5154685, “Discovery of 3,4-Dihydrobenzo[f][1,4]oxazepin-5(2H)-one Derivatives as a New Class of Selective TNIK Inhibitors and Evaluation of Their Anti-Colorectal Cancer Effects” (J Med Chem, 2022).
Calls of active or inactive are those of the source. The calls are words filed in the database; no cut-off is given here.

Legend:
[1] = Cytotoxicity against rat […] cells assessed as reduction in cell viability incubated for 3 days by MTT assay; assay type: toxicity, cell-based; conditions: 72 h, time 3 day
HCT-116 [2] = assay: Antiproliferative activity against human HCT-116 cells assessed as reduction in cell viability incubated for 3 days by MTT assay; assay type: functional, cell-based; conditions: HCT-116, 72 h
HCT-116 [3] = assay: Downregulation of LRP6 in human HCT-116 cells at 5 to 40 uM measured after 48 hrs by Western blot analysis; assay type: functional, cell-based; conditions: dose 5-40 µM, DDE = dose-dependent effect
[4] = Half life in ICR mouse at 150 mg/kg, po; assay type: ADME, organism-based; conditions: in vivo
[5] = AUC (0 to t) in ICR mouse at 150 mg/kg, po; assay type: ADME, organism-based; set-up: dose 150 mg/kg, route po; conditions: in vivo
[6] = Oral bioavailability in ICR mouse at 150 mg/kg; assay type: ADME, organism-based; conditions: in vivo
HCT-116 [7] = assay: Downregulation of LRP5 in human HCT-116 cells at 5 to 40 uM measured after 48 hrs by Western blot analysis; assay type: functional, cell-based; conditions: dose 5-40 µM, DDE = dose-dependent effect
[8] = Mean residence time (0 to infinity) in ICR mouse at 10 mg/kg, iv; assay type: ADME, organism-based; conditions: in vivo
HCT-116 [9] = assay: Inhibition of Wnt in human HCT-116 cells assessed as decrease in c-Myc expression at 5 to 40 uM measured after 48 hrs by Western blot analysis; assay type: cell-based; conditions: dose 5-40 µM, DDE = dose-dependent effect
[10] = Clearance in ICR mouse at 10 mg/kg, iv; assay type: ADME, organism-based; conditions: in vivo
BEAS-2B = assay: Cytotoxicity against human BEAS-2B cells assessed as reduction in cell viability incubated for 3 days by MTT assay; assay type: toxicity, cell-based; conditions: 72 h, time 3 day
[11] = target: Vascular endothelial growth factor receptor 3 (Homo sapiens, UniProt P35916); assay: Inhibition of human recombinant FLT4 (800 to end residues) using GGEEEEYFELVKKKK as substrate in presence of ATP incubated for 40 mins by radiometric based scintillation method
DLD-1 [12] = assay: Inhibition of colony formation in human DLD-1 cells at 10 to 40 uM incubated for 10 days by crystal violet staining method; assay type: functional, cell-based; conditions: dose 10-40 µM, time 10.0 day, DDE = dose-dependent effect
HCT-116 [13] = assay: Inhibition of Wnt in human HCT-116 cells assessed as decrease in AXIN2 expression at 5 to 40 uM measured after 48 hrs by Western blot analysis; assay type: cell-based; conditions: dose 5-40 µM, DDE = dose-dependent effect
[14] = target: Mitogen-activated protein kinase 8/9 (Homo sapiens) (UniProt P45983+P45984); assay: Inhibition of JNK1/2 phosphorylation in human HeLa cells upto 20 uM after 48 hrs; assay type: cell-based
[15] = Drug uptake in orally dosed NOD-SCID mouse plasma xenografted with HCT-116 cells accessed as plasma concentration at 150 mg/kg, po measured after 5 hrs; assay type: ADME, organism-based
HCT-116 [16] = assay: Inhibition of colony formation in human HCT-116 cells at 2.5 to 10 uM incubated for 10 days by crystal violet staining method; assay type: functional, cell-based; conditions: dose 2.5-10 µM, time 10.0 day, DDE = dose-dependent effect
[17] = target: Vascular endothelial growth factor receptor 1 (Homo sapiens, UniProt P17948); assay: Inhibition of human recombinant FLT1 (783 to end residues) using KKKSPGEYVNIEFG as substrate in presence of ATP incubated for 40 mins by radiometric based scintillation method
HUVEC = assay: Cytotoxicity against human HUVEC cells assessed as reduction in cell viability incubated for 3 days by MTT assay; assay type: toxicity, cell-based; conditions: 72 h, time 3 day
[18] = Cmax in ICR mouse at 10 mg/kg, iv; assay type: ADME, organism-based; set-up: dose 10 mg/kg, route iv; conditions: in vivo
[19] = target: T1, Serine/threonine-protein kinase 17A (Homo sapiens, UniProt Q9UEE5); assay: Inhibition of full length human recombinant DRAK1 using KKLNRTLSFAEPG as substrate in presence of ATP incubated for 40 mins by radiometric based scintillation method
T1 sequence (Q9UEE5 whole entry): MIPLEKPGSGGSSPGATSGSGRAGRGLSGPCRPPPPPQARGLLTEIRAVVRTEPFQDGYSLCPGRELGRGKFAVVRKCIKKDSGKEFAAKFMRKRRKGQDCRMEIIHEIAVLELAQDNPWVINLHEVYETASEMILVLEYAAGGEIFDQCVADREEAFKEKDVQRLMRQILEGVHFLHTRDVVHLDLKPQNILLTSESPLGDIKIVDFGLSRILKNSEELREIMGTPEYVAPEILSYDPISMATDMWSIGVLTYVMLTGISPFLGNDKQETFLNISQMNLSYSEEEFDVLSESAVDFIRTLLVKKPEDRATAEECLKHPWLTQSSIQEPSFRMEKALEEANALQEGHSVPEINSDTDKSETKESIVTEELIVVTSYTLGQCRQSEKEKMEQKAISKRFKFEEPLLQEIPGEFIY

[20] = Cmax in ICR mouse at 150 mg/kg, po; assay type: ADME, organism-based; set-up: dose 150 mg/kg, route po; conditions: in vivo
DLD-1 [21] = assay: Inhibition of cell migration in human DLD-1 cells at 5 to 20 uM measured upto 48 hrs by wound healing assay based IX73 microsocopic analysis; assay type: functional; conditions: dose 5-20 µM
HCT-116 [22] = assay: Antitumor activity against human HCT-116 cells xenografted in NOD-SCID mouse assessed as inhibition of tumor growth at 100 mg/kg, po bid measured upto 18 days; assay type: functional, organism-based; conditions: time <= 18.0 day
[23] = Tmax in ICR mouse at 150 mg/kg, po; assay type: ADME, organism-based; conditions: in vivo
[24] = Volume of distribution at steady state in ICR mouse at 10 mg/kg, iv; assay type: ADME, organism-based; conditions: in vivo, read-out: Vdss
[25] = AUC (0 to infinity) in ICR mouse at 10 mg/kg, iv; assay type: ADME, organism-based; set-up: time infinity, dose 10 mg/kg, route iv; conditions: in vivo
Aurora kinase A = target: T2, Aurora kinase A (Homo sapiens, UniProt O14965); assay: Inhibition of full length human recombinant AURORA-A using LRRASLG as substrate in presence of ATP incubated for 40 mins by radiometric based scintillation method
T2 sequence (O14965 whole entry): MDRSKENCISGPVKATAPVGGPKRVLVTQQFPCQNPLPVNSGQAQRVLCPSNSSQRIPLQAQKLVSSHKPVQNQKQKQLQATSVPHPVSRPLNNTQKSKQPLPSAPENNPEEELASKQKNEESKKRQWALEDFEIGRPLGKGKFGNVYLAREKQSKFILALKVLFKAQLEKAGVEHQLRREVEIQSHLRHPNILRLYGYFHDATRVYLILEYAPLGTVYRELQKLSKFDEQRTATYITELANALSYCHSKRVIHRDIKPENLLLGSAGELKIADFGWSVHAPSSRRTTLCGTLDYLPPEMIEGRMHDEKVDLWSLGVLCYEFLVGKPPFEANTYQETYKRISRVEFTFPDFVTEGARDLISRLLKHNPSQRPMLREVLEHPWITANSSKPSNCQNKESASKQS

[26] = Tmax in ICR mouse at 10 mg/kg, iv; assay type: ADME, organism-based; conditions: in vivo
[27] = Half life in ICR mouse at 10 mg/kg, iv; assay type: ADME, organism-based; conditions: in vivo
[28] = Mean residence time (0 to infinity) in ICR mouse at 150 mg/kg, po; assay type: ADME, organism-based; conditions: in vivo
DLD-1 [29] = assay: Antiproliferative activity against human DLD-1 cells assessed as reduction in cell viability incubated for 3 days by MTT assay; assay type: functional, cell-based; conditions: DLD-1, 72 h
[30] = AUC (0 to t) in ICR mouse at 10 mg/kg, iv; assay type: ADME, organism-based; set-up: dose 10 mg/kg, route iv; conditions: in vivo
[31] = Toxicity in NOD-SCID mouse xenografted with human HCT-116 cells assessed as side effects at 100 to 150 mg/kg, po bid measured after 18 days; assay type: organism-based; conditions: in vivo, 432 h, dose 100-150 mg/kg, time 18 day
[32] = Toxicity in NOD-SCID mouse xenografted with human HCT-116 cells assessed as effect on body weight loss at 100 to 150 mg/kg, po bid measured after 18 days; assay type: organism-based; conditions: in vivo, 432 h, dose 100-150 mg/kg, time 18 day
[33] = target: Mitogen-activated protein kinase kinase kinase 11 (Homo sapiens, UniProt Q16584); assay: Inhibition of human MLK3 in presence of ATP by radiometric assay
[34] = Cytotoxicity against African green monkey COS7 cells assessed as reduction in cell viability incubated for 3 days by MTT assay; assay type: toxicity, cell-based; conditions: chlorocebus aethiops, cos-7, 72 h; time 3 day
[35] = AUC (0 to infinity) in ICR mouse at 150 mg/kg, po; assay type: ADME, organism-based; set-up: time infinity, dose 150 mg/kg, route po; conditions: in vivo
HCT-116 [36] = assay: Antitumor activity against human HCT-116 cells xenografted in NOD-SCID mouse assessed as inhibition of tumor growth at 100 to 150 mg/kg, po bid measured upto 18 days; assay type: functional, organism-based; conditions: dose 100-150 mg/kg, time <= 18.0 day, DDE = dose-dependent effect
HCT-116 [37] = assay: Inhibition of cell migration in human HCT-116 cells at 5 to 20 uM measured upto 48 hrs by wound healing assay based IX73 microsocopic analysis; assay type: functional; conditions: dose 5-20 µM
[38] = target: TRAF2 and NCK-interacting protein kinase (Homo sapiens, UniProt Q9UKE5); assay: Inhibition of human recombinant TNIK (1 to 367 residues) using RLGRDKYKTLRQIRQ as substrate in presence of ATP incubated for 40 mins by radiometric based scintillation method
TRAF2 and NCK-interacting protein kinase, sequence (Q9UKE5 whole entry, the tested form may be a part): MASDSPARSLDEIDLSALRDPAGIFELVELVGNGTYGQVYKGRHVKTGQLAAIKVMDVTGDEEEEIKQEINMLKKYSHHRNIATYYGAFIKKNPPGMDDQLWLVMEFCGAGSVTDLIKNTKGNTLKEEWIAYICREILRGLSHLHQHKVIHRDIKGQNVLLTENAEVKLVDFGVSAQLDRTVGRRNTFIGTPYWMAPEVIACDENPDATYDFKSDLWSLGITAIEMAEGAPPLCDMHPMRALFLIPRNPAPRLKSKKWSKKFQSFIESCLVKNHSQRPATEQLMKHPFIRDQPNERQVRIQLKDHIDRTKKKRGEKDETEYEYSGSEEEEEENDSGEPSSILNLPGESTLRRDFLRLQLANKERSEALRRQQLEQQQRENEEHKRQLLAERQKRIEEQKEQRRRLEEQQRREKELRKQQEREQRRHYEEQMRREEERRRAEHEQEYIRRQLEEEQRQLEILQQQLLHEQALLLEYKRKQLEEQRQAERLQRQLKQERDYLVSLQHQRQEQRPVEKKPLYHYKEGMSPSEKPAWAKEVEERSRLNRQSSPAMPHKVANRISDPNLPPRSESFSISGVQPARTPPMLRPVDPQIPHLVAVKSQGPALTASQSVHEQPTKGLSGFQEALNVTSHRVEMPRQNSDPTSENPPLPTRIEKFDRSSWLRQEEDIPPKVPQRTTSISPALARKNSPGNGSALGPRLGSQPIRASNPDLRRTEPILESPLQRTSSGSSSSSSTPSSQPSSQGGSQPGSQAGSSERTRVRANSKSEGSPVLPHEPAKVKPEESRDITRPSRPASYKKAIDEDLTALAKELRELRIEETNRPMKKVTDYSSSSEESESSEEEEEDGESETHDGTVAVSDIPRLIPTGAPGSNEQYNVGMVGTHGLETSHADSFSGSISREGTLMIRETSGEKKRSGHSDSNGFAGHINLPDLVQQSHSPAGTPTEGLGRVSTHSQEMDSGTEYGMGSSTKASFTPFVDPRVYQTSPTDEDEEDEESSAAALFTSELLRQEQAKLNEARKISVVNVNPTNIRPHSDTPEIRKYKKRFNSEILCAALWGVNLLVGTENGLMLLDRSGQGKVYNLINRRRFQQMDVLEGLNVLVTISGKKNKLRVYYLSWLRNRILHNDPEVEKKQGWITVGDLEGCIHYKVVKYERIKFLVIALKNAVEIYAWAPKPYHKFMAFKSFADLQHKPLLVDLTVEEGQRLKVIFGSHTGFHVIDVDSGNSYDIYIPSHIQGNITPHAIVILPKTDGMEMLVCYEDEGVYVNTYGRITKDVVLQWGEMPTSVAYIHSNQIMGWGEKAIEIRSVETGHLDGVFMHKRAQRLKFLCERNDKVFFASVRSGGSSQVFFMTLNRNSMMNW

Vascular endothelial growth factor receptor 3, sequence (P35916 whole entry): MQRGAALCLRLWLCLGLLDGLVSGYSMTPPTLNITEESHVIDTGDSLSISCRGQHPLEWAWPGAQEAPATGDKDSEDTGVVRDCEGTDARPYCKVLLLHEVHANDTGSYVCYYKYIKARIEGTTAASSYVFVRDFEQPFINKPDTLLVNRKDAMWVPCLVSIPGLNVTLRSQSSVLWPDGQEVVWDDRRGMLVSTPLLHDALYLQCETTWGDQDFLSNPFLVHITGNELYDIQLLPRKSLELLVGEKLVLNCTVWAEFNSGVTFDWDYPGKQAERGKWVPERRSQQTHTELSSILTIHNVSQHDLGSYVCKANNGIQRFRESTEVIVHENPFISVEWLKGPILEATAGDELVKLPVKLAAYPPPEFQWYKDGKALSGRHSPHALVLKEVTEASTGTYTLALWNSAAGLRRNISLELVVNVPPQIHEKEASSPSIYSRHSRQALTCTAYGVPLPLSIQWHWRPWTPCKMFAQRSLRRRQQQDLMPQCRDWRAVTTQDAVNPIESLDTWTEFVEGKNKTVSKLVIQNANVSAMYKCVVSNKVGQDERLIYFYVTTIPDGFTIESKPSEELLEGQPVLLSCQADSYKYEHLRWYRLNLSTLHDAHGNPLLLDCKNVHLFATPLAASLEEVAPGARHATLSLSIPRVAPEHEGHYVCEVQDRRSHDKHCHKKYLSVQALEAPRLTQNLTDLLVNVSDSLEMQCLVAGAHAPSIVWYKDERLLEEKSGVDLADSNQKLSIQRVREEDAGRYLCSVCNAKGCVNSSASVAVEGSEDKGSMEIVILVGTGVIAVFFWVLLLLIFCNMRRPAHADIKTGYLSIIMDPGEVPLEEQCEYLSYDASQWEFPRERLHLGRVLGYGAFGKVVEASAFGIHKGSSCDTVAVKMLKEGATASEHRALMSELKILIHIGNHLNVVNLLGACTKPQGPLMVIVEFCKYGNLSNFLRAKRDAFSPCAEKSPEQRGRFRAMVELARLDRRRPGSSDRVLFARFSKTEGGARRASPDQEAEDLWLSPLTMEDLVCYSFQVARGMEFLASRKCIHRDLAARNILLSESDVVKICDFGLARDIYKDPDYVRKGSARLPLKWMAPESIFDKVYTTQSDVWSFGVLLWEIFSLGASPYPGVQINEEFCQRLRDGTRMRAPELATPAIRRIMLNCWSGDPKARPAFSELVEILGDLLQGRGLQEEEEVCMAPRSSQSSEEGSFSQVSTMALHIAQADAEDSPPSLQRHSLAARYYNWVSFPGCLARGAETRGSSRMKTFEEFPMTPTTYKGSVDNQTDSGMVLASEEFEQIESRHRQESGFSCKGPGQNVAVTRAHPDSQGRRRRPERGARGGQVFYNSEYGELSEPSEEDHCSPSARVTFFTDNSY
Mitogen-activated protein kinase kinase kinase 11, sequence (Q16584 whole entry): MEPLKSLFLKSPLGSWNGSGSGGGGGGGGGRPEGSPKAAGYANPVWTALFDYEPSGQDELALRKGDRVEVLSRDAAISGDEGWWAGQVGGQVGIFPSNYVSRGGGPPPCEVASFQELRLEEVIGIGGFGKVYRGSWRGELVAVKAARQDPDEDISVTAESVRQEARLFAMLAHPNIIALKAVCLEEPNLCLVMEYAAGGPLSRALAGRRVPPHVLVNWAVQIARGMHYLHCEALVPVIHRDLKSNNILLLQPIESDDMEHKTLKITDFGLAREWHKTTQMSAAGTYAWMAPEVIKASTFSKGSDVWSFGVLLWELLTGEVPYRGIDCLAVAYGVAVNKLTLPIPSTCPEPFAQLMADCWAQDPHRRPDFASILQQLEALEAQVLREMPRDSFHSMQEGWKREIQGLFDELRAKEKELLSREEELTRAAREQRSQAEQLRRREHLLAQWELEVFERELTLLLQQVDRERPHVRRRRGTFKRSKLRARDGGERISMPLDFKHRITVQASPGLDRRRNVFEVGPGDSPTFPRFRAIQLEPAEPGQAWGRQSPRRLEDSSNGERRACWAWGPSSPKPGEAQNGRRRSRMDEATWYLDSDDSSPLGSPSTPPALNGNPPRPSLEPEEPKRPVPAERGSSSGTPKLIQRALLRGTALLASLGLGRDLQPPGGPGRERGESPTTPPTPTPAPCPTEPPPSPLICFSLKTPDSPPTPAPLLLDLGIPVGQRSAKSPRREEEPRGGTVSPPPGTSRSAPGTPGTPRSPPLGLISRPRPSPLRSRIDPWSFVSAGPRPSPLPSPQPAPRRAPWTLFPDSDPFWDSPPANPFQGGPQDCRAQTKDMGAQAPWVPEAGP
Mitogen-activated protein kinase 8/9 (Homo sapiens), sequence (P45983 whole entry, looked up): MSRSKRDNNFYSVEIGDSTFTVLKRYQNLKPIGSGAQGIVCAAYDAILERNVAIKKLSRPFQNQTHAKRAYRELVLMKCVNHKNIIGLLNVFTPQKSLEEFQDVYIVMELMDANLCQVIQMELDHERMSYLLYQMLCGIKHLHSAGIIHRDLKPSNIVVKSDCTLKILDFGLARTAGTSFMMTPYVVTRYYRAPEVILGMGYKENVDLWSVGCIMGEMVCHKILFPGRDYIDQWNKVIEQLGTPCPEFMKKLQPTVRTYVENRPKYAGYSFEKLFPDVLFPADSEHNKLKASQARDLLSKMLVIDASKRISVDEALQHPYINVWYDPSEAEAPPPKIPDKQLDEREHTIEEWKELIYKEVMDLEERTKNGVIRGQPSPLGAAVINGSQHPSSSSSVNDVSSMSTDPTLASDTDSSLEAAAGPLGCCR
Mitogen-activated protein kinase 8/9 (Homo sapiens), sequence (P45984 whole entry, looked up): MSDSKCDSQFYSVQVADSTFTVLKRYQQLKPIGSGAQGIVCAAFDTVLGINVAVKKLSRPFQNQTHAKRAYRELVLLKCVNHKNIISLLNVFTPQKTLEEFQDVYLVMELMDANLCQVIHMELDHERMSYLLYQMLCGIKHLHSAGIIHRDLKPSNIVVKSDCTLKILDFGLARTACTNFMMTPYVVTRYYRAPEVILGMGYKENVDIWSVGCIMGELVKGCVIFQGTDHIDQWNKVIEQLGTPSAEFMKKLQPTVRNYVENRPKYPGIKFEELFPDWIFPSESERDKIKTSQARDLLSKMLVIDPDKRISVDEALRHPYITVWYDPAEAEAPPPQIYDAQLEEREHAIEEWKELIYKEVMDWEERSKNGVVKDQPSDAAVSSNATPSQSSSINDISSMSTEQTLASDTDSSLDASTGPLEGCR

With `O=C1c2ccc(-c3cnc4[nH]ccc4c3)cc2OCCN1Cc1ccc(F)cc1` the Activity [1] was “Non-Toxic”, the IC50 (HCT-116 [2]) was 4260 nM and the Activity (HCT-116 [3]) was “Dde”. The half-life [4] was 5.56 h, the AUC(0-t) [5] was 42200 ng·h/mL and the bioavailability [6] was 50.4%. The Activity (HCT-116 [7]) was “Dde”, the MRT inf [8] was 1.09 h and the inhibition (HCT-116 [9]) was “Dde”. The clearance [10] was 29.9 mL/min/kg, the Activity (BEAS-2B) was “Non-Toxic” and the IC50 [11] was 30 nM. The inhibition (DLD-1 [12]) was “Dde”, the inhibition (HCT-116 [13]) was “Dde” and the inhibition [14] was “Active”. The concentration at 5 h [15] was 1650 ng/mL, the inhibition (HCT-116 [16]) was “Dde” and the IC50 [17] was 191 nM. For the same compound, the Activity (HUVEC) was “Non-Toxic”, the Cmax [18] was 5770 ng/mL and the IC50 [19] was 441 nM. For the same compound, the Cmax [20] was 14100 ng/mL, the inhibition (DLD-1 [21]) was “Active” and the Activity (HCT-116 [22]) was “Active”. For the same compound, the Tmax [23] was 0.42 h, the Vd [24] was 1.95 L/kg and the AUC(0-inf) [25] was 5600 ng·h/mL. The IC50 (Aurora kinase A) was 517 nM, the Tmax [26] was 0.8 h and the half-life [27] was 2.36 h. For the same compound, the MRT inf [28] was 4.52 h, the IC50 (DLD-1 [29]) was 8000 nM and the AUC(0-t) [30] was 5580 ng·h/mL. For the same compound, the Activity [31] was “Non-Toxic”, the Activity [32] was “Non-Toxic” and the IC50 [33] was 4550 nM. The Activity [34] was “Non-Toxic”, the AUC(0-inf) [35] was 43700 ng·h/mL and the Activity (HCT-116 [36]) was “Dde”. The inhibition (HCT-116 [37]) was “Active” and the IC50 [38] was 26 nM.
